The subject of data set [1] is anemische Decerebrationsstarre. In words: Inhibition of anemic decerebrate rigidity in rats, method of Fukuda et al. Type of data set: in vivo, Wister-Ratten. As to conditions: male rats, i.v.; for ED50: Rattus norvegicus, iv, read-out: Dosis für 50%ige Inhibierung; for ED50 / Zeit für 50%ige Erholung: anemic decerebrate rigidity. From the text:
Die Untersuchungen wurden ausgeführt nach der Methode von Fukuda et al. (Japanese Journal of Pharmacology, Band 24, Seiten 810 - 813, 1974).
Es wurden männliche Wister-Ratten mit einem Köpergewicht von 280 - 380 g verwendet. Die Tiere wurden mit Aether betäubt und am Rücken befestigt. Nach Freilegen der Luft- und Speiseröhre sowie der beiderseitigen, gemeinsamen Carotisarterien wurde die Luftröhre kanüliert und die Speiseröhre abgetrennt. Das Hinterhauptbein wurde durch Abschaben der anhängenden Muskulatur freigelegt. Nach beidseitigem Abbinden der gemeinsamen Carotisarterien wurde im mittleren Teil des Hinterhauptbeines eine Oeffnung von 5 mm Durchmesser trepaniert, um die Basilararterie sichtbar zu machen. Die dura mater wurde längs der Basilararterie durchschnitten und letztere mit einem Coagulator ausgeätzt. Unmittelbar nach Beendigung dieser Massnahmen wurde die Anästhesie unterbrochen. Innerhalb von 30-min entwickelte sich Starre, und es trat eine deutliche Streckung der Extremitäten, des Nackens und des Schwanzes ein. Die Streckung der Vordergliedmassen wurde mit einem Dehnungsmessstreifen erfasst. 50 min nach Erholung von der Betäubung wurden in Salzlösung aufgelöste Pharmaka durch eine in die Oberschenkelvene eingeführte Kanüle intravenös zugeführt. Die verwendeten Pharmaka waren Caroverinfumarat und Referenz-Agenzien, nämlich Mephenesin und Tolperison-Hydrochlorid. Das Ergebnis nach Zuführung von 2 mg/kg Caroverinfumarat sind in der nachstehend eingefügten Tabelle wiedergegeben.

Data set [2] concerns isolierte, nach Langendorff perfundierte Meerschweinchenherz. Briefly: Isolated Langendorff-perfused guinea pig heart: coronary flow, contraction amplitude, heart rate. On the set-up: species or system Meerschweinchen.
Description: Meerschweinchen wurden durch Genickschlag getötet, der Thorax eröffnet, der Herzbeutel aufgeschnitten, die Aorta mit einem Faden angeschlungen und in der pars ascendens angeschnitten. Nach Einbinden einer Glaskanüle in die Aorta wurde die aorta pulmonalis eröffnet und anschliessend das Coronargefässsystem durch die Aortenkanüle unter leichten Druck mit einer Spitze durchgespült. Nach Dulchirennung aller anhängenden Gefässe wurde das Herz an der Aortenkanüle in die feuchte Kammer einer modifizierten Langendorff-Apparatur gehängt und mit carbogengesättigter Tyrodelösung von 37^uC mit einem Druck von 55 cm H20 perfundiert. An der Herzspitze wurde eine Serre fine angebracht, die über einen Faden mit einem zweiarmigen Hebel verbunden war, der die Kontraktionsamplitude auf einem Russkymographen aufzeichnete. Alle Herzen waren mit 4 g belastet. Der Schreibhebel passierte bei seinen Ausschlägen die Lichtschranke einer Fotozelle. Dadurch konnte die Herzfrequenz über einen Totalisator (nach FLEISCH, Firma B. Braun, Melsungen) registriert werden. Die aus dem rechten Vorhof frei abfliessende Perfusionslösung tropfte auf einen elektrischen Kontakt. Die Tropfenzahl wurde mittels eines zweiten Totalisators aufgezeichnet,und nach Eichung in ml/min der Coronardurchfluss bestimmt.
Nach Fertigstellung der Präparate wurde bis zum Versuchsbeginn 45 Min. gewartet. Nach dieser Zeit hatten Kontaktionsamplitude, Frequenz und Coronardurchblutung ein konstantes Niveau erreicht.
Caroverin wurde in Einzeldosen von 1, 10, 100 sowie 1000 ug verabreicht. Theophyllin wurde in Dosen von 10, 100 sowie 1000 ug gegeben. In allen Versuchen wurden Caroverin und Theophyllin abwechselnd verabreicht, wobei jeweils eine Zeitspanne von 5 Min. zwischen zwei Einzelinjektionen lag. Alle Injektionsvolumina betrugen 0.1 ml.
Die Effekte der Substanzen wurden ermittelt,indem in jedem Versuch bei jeder Einzeldosis die maximalen Zu- bzw. Abnahmen der entsprechenden Parameter gegenüber dem jeweiligen Ausganswert bestimmt und diese Einzeleffekte gemittelt wurden. Statistische Signifikanzberechnungen erfolgten nach dem t-Test (student's-Test).
A further data set has as its system Maus. Briefly: Acute toxicity in the mouse (new caroverine salts). It is filed as in vivo. Conditions: for Akute Toxizität, observation: in vivo; for Letale Dosis: mouse, i.p. The method, then:
Letale Dosis: • 200 mg/kg i.p..

A further data set relates to Agonisten (Atropin). In words: Anticholinergic effect in vitro, guinea pig. On the set-up: species or system Meerschweinchen. Conditions: 10 µg/ml. The method, then:
In vitro ergab sich am Meerschweinchen mit einer Dosis von 10 µg/ml eine mehr als 80 %ige Hemmung des verwendeten Agonisten (Atropin).

Data set [3] relates to Meerschweinchen-Lungenpräparat. Briefly: Bronchodilator effect on guinea pig lung preparation (perfusion flow rate). As to conditions: in vitro, 100 µg/ml.
For another data set, the system named is Ratten. In words: Diuretic effect in rats, method of Lipschitz et al. (Na excretion score). It is filed as in vivo. Conditions: 20 mg/kg p.os, quotient of Na excretion after test substance to Na excretion of control. From the text:
Diese Untersuchung an Ratten wurde nach der Methode von Lipschitz et al., j.p.e.t. 79, 97-110, 1954, durchgeführt.
Der errechnete Score entspricht einem Quotienten aus Na-Ausscheidungen nach der Testsubstanz durch Na-Ausscheidung des Kontroll-Leerwertes.
Die Untersuchung an Ratten wurde wie unter 1. durchgeführt. Für den diuretischen Wirkungs-Score gilt gleiches.

The subject of a further data set is Hunden. Briefly: Coronary sinus outflow, systemic blood pressure and heart rate in dogs. It is filed as in vivo. Conditions: dogs, 0,03-3,0 mg/kg, effect increases with dose (Fig. 4-6). How it is done: Es wurde der coronare Sinus-Ausfluss(CSF), der System-Blutdruck (SEP) und die Herzfrequenz (HR) an Hunden untersucht. Für den coronaren Sinus-Ausfluss wurde die in Clin. Pharmacol. Physiol., 5, 107 - 115, 1978, Australien,beschriebene Untersuchungsmethode angewendet.
Zeitdiagramme der genannten Messgrössen SBP (mmHg), CSF (ml/min) und HR (min ) wurde für […] verschiedene Dosierungen von Caroverinfumarat, nämlich 0,03, 0,1, 0,3, 1,0 und 3,0 mg/kg (bezogen auf das Körpergewicht) aufgenommen. Die Diagramme für die drei erstgenannten Dosierungswerte sind in Fig. 4 und diejenigen für die beiden letztgenannten Dosierungswerte in Fig. 5 bzw. Fig. 6 wiedergegeben. Der Zuführungszeitpunkt der Wirksubstanz ist in den Diagrammen gemäss Fig. 4 durch das Zeichen "o" markiert, während in den Diagrammen gemäss Fig. 5 und 6 das Zuführungsintervall jeweils durch einen Horizontalstrich unterhalb der CSF-Messkurve angegeben ist.

Data set [4] in a line: Acute toxicity (LD50) in male mice. As to conditions: mouse, in vivo. The source says: Untersuchung der akuten Toxizität an männlichen Mäusen
Es wurden folgende Standard-Grenzwerte LDSO (mg/kg) ermittelt:
Toxizitätsuntersuchung an männlichen Mäusen

The subject of a further data set is Herzfrequenz. Briefly: Clinical study: heart rate under stepwise i.v. dosing, treatment groups A, B, C. Type of data set: in vivo, Menschen. From the text: • a) Anzahl: je 6 Patienten der Gruppen A, B und C. Die Probandenzahl der Gruppe D hängt davon ab […] hoc finden. • b) Die […] des Prüfers. • c) Kontraindikationen […], die nicht für eine klinische Studie mit Ca-Antagonisten geeignet sind, oder unter […] leiden, die die Resultate […]. Die […] 10 und 5' vor Beginn der Medikation. […] Nach Beendigung der Medikation, Nachkontrolle in 10-[…] bis ca. 4 Stunden nach Beginn der Medikation. Abbruch der Medikation bei: • 1) AV-Block 1. […] In einem ersten Schritt wurden die Zeitreihen (Herzfrequenz-Mittelwerte und Streuungen) je Behandlungsgruppe einzeln berechnet und graphisch dargestellt (s. Abbildung und […], die […] auch […] und der 3 Stunden Nachbeobachtung unterscheiden. Es ist ebenfalls festzuhalten, dass die Werte zu Beginn der Applikation gegenüber den Vorwerten durchwegs erhöht sind. Um die Herzfrequenz-Verläufe […] zu […] Differenzen der Mittelwerte zu jedem […] zu den Vorwerten als auch zum Wert bei […] und […] - unter […] und […] - auf Signifikanz geprüft.

Data set [5] relates to Patienten mit Arrhythmia absoluta.
Protocol: Bei insgesamt 6 Patienten (5♀, 1 ♂) mit Arrhythmia absoluta wurden innerhalb 3 - 5 Min. 200 mg Caroverinfumarat i.v. verabreicht. […] Mittleres Alter der Probanden war 65 (+6/-11) Jahre. Registriert wurden EKG (Frequenz) und Blutdruck (Riva-Rocci) bis max. 13 Minuten nach Injektionsbeginn. Die Min.-Frequenz ermittelte sich aus 10 aufeinanderfolgenden QRS-Komplexen.
In data set [6] the test system is Thrombozytenaggregation. Briefly: Collagen-induced platelet aggregation, same method on human blood preparations. It is filed as cell-based, menschlichem Blut. As to conditions: same method as with rabbit plasma.
Data set [7] concerns Thrombozytenaggregation. In words: Collagen-induced platelet aggregation in platelet-rich plasma, turbidimetry. Type of data set: cell-based, Kaninchen. The source says:
Thrombozytenreiches Plasma wurde aus citriertem Kaninchenblut gewonnen. Die Thrombozytenaggregation wurde durch Collagen aus Rinder- Achillessehnen induziert, worauf der Aggregations-Hemmeffekt durch optische Trübungsmessung (Turbidimetrie) untersucht und quantifiziert werden konnte.
Bei diesen Diagrammen handelt es sich um Aufnahmen des zeitlichen Verlaufes einer optischen Messgrösse als Mass eines durch das Präparat tretenden Lichtanteils, entsprechend einem reziproken Mass für den Agglutinations- oder Aggregationsgrad. Die verschiedenen Messkurven für je eine Wirksubstanz entsprechen unter- schiedlichen molaren Konzentrationen in Mikromol des Wirkstoffes als Parameter. Die erste Messkurve in Fig. 1 entspricht einem Kontroll-Leerversuch.

Setting [8] is: group B, ca. 70 min after start of application.
The mark [9] stands for this setting: group C, 2 1/2 to 3 h after start of application.

Structures can show the parent of a compound that is named as a salt.

One may read the LD50 as the dose at which mortality reaches 50%. High values mean a less toxic substance, low ones a more toxic substance.

Consider `Cc1ccccc1OCC(O)CO` (stereo not shown) [Mephenesin], for which, in [1], the ED50 stood at 25 mg/kg and the “Zeit für 50%ige Erholung” value is reported as “ca 13 min”.

Turning to `Cn1c(=O)c2[nH]cnc2n(C)c1=O` [Theophyllin, reference compound], in [2] (1000pg as printed, in all experiments), the Herzfrequenz result is given as “die Herzfrequenz vorübergehend steigerte”. The Kontraktionsamplitude entry in data set [2] (doses used (10, 100, 1000 ug)) is listed as “keine signifikanten Aenderungen der Kontraktionsamplitude”. In data set [2] (single doses Caroverin 1-1000 ug, Theophyllin 10-1000 ug, 1000 Theophyllin about equal to 100 Caroverin), the Coronardurchfluss entry is recorded as “steigernde Wirkung auf den Coronardurchfluss”.

In the case of `Cc1ccc(C(=O)C(C)CN2CCCCC2)cc1` (stereo not shown) [Tolperison-Hydrochlorid], in data set [1], the ED50 turned out to be 4 mg/kg and the “Zeit für 50%ige Erholung” value is listed as “ca. 10 min”.

Turning to `CCN(CC)CCn1c(=O)c(Cc2ccc(OC)cc2)nc2ccccc21` [Caroverin-Theophyllinat], the “Akute Toxizität, observation” value with Maus (300 mg/kg) is “keine Auffälligkeiten”; with Maus (ip, 100 mg/kg), “leichte Muskelrelaxation”. Also, in the data set with Maus, the “Letale Dosis” value came to 200 mg/kg. Also, the “Hemmung des verwendeten Agonisten (Atropin)” value in the data set with Agonisten (Atropin) was above 80%. For the same molecule, in [3], the Perfusions-Fliessrate result is recorded as “eindeutige Zunahme der Perfusions-Fliessrate”. The “diuretischer Wirkungs-Score” value in the data set with Ratten (20 mg/kg) is recorded as 2.8.

`CCN(CC)CCn1c(=O)c(Cc2ccc(OC)cc2)nc2ccccc21` [Caroverinfumarat]: the “Herzfrequenz (HR)” value with Hunden is “Herabsetzung der Herzfrequenz”. Also, the “System-Blutdruck (SBP)” value with Hunden was “Herabsetzung des System-Blutdrucks”. The “coronarer Sinus-Ausfluss (CSF)” value in the data set on Hunden is recorded as “Rasch zunehmende und langsam abklingende Zunahme des coronaren Sinus-Ausflusses”. In addition, the LD50 in [4] (intravenous) was found to be 39 mg/kg; in [4] (ip, intraperitoneal), 138 mg/kg; in data set [4] (oral), 800 mg/kg. Moreover, the “mittlere Herzfrequenz, % of value before application” value in the data set on Herzfrequenz (group A (heart-healthy), end of application after 40 min) came to 86%; in the data set with Herzfrequenz (group A, 2 h after start of application), 79%; in the data set on Herzfrequenz (group B (coronary heart disease), end of application), 90%; in the data set on Herzfrequenz (setting [8]) it was 84%; in the data set on Herzfrequenz (group C (diseased conduction system), end of application), 86%; in the data set with Herzfrequenz (setting [9]), 82%. Further, the “mittlere Herzfrequenz” value in the data set with Herzfrequenz (group A (heart-healthy), end of application after 40 min, 20 mg i.v. then 10 mg every 4 min up to 120 mg, baseline 72/Min.) was 62 min⁻¹; with Herzfrequenz (group A, 2 h after start of application, lasting to end of 4 h observation), 57 min⁻¹; in the data set on Herzfrequenz (group B (coronary heart disease), end of application, baseline 77/Min.), 69 min⁻¹; with Herzfrequenz (setting [8]) it was 65 min⁻¹; in the data set with Herzfrequenz (group C (diseased conduction system), end of application, baseline 66/Min.) it was 57 min⁻¹; with Herzfrequenz (setting [9]) it was 54 min⁻¹. In addition, the Vorhofflimmer-Frequenz result in data set [5] (6 patients, 200 mg i.v.) was “ohne messbare Veränderung”. In data set [5] (6 patients, 200 mg i.v.), the “rhythmisierender Effekt” value is “nicht nachgewiesen”. In [5] (6 patients, 200 mg i.v. within 3-5 min), the “maximale systolische Blutdruckabfall” value is 29,3 (+ 8,2/-9,3) %. Besides, the “diastolische Blutdruckabfall” value in [5] (mean of 6 patients, 200 mg i.v. within 3-5 min) is given as 26,6 (+ 10,9/-11,6) %. Moreover, the “maximale Frequenz-Abfall im Vergleich zum Ausgangswert” value in data set [5] (mean of 6 patients, 200 mg i.v. within 3-5 min, up to 13 min after start of injection) is 26,6 (+ 7,2/-4,7) %. Besides, the Aggregations-Hemmeffekt entry was “Aehnliche Ergebnisse” with Thrombozytenaggregation [6]; “eindeutigen Hemmungseffekt” with Thrombozytenaggregation [7] (rabbit platelet-rich plasma, collagen from bovine Achilles tendon, several micromolar concentrations (Fig. 1-3), intensity between Benzyclanfumarat and Aspirin). In addition, the ED50 in data set [1] is 1.5 mg/kg. Moreover, the “Zeit für 50%ige Erholung” value in data set [1] is above 30 min. Further, the “anemische Decerebrationsstarre” value in [1] (stronger and longer lasting than Tolperison-Hydrochlorid and Mephenesin) is “unverzüglich aufgehoben”.

`CC(=O)S[C@@H]1CC2=CC(=O)CC[C@]2(C)[C@H]2CC[C@@]3(C)[C@@H](CC[C@@]34CCC(=O)O4)[C@H]12` [Spironolacton, reference compound]: in the data set with Ratten, the “diuretischer Wirkungs-Score” value is given as 3.6.

With `CCN(CC)CCn1c(=O)c(Cc2ccc(OC)cc2)nc2ccccc21` [Caroverin-Nicotinat], in the data set on Thrombozytenaggregation [7] (Oryctolagus cuniculus, Platelet, in vitro, rabbit, 10 mcg/ml, read-out: Hemmung der collagen-induzierten Plättchenaggregation), the inhibition at 10 µg/mL was 100%. The “Akute Toxizität, observation” value in the data set with Maus (300 mg/kg) was “keine Auffälligkeiten”; in the data set with Maus (ip, 100 mg/kg), “Abnahme des Muskeltonus in den Extremitäten, sowie eine leichte Abnahme des Haltegriffes”. Besides, the “Letale Dosis” value in the data set with Maus is on record as 200 mg/kg. For the same molecule, the “Hemmung des verwendeten Agonisten (Atropin)” value with Agonisten (Atropin) is listed as above 80%. For the same molecule, the Perfusions-Fliessrate entry in data set [3] is “eindeutige Zunahme der Perfusions-Fliessrate”. Also, the “diuretischer Wirkungs-Score” value in the data set on Ratten (20 mg/kg) is reported as 2.6.

Values taken from patent publication EP0032564A1, “Pharmaceutical use of caroverine and/or salts of caroverine, as well as salts of caroverine with xanthine acid remainders and nicotinic acid remainder” (MEDICHEMIE AG, priority 1979, dated 1981).
